# Tests used:
# [1] = molecular target: T1, recombinant human transglutaminase 2 (Homo sapiens, UniProt P21980); experiment: Transglutaminase assay (DCC-assay): incorporation of dansylcadaverine into dimethylcasein; format: biochemical; conditions: recombinant human TG2 10 nM; dansylcadaverine incorporation into dimethylcasein; read-out: IC50 TG2
# T1 construct: purchased Zedira T022
# T1 sequence (P21980 1-687): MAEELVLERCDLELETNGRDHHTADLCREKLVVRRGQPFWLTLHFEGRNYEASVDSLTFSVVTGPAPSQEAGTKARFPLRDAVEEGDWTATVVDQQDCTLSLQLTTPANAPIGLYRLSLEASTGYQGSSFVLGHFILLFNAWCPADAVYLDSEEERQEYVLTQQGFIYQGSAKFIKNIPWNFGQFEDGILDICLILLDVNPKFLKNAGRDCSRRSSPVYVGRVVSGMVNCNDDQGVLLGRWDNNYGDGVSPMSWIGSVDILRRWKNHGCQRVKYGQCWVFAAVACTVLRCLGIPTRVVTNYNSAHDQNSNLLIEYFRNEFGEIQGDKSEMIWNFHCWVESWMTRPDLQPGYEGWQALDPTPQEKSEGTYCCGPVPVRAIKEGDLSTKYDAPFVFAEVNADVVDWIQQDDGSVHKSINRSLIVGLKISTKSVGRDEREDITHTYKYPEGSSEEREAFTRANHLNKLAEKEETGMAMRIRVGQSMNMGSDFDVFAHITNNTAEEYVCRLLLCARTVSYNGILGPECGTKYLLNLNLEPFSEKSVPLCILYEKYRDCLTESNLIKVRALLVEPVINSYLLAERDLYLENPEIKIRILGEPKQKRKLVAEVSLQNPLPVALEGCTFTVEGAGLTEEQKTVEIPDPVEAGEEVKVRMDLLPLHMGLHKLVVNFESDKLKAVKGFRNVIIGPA
# Method in brief: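 Recombinant human TG2 (10 nM final) incorporates dansylcadaverine into N,N-dimethylcasein. Reaction mix: 50 mM Tris-HCl, 10 mM CaCl2, 10 mM glutathione, 2.5% glycerol, 16.7 µM dansylcadaverine, 4 µM dimethylcasein, 200 mM NaCl, pH 8.0. Fluorescence (ex 330/em 500 nm) was followed 30 min at 37 °C; the 20–30 min slope, expressed as % of 2% DMSO control, gave IC50.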
# [2] = logD by shake flask method (octanol / PBS pH 7.4, HPLC); format: physicochemical; conditions: octanol / PBS pH 7.4, shake flask
# Method in brief: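 Shake-flask partition of compound between octanol and phosphate-buffered saline at pH 7.4, with each phase quantified by HPLC to give LogD.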
# [3] = Caco-2 permeability assay (CacoReady kit); format: in vitro ADME; conditions: human, Caco-2, Caco-2 barrier, CacoReady kit; above 1×10^−6 cm/s classified as permeable
# Method in brief: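 Read-out is the permeability coefficient Papp, obtained from transport across a Caco-2 barrier prepared from a ready-to-use kit following the manufacturer's instructions.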
Compound,IC50 [1] [nM],logD [2],Papp [3] [×10⁻⁶ cm/s]
"CNC(=O)C(=O)CC[C@H](NC(=O)c1coc2ccccc12)C(=O)Nc1cccn(CC(=O)NC2C3CC4CC(C3)CC2C4)c1=O (stereo partly drawn) [II-136, (S)-2-(benzofuran-3-carboxamido)-N1-(1-(2-(2-adamantylamino)-2-oxoethyl)-2-oxo-1,2-dihydropyridin-3-yl)-N6-methyl-5-oxohexanediamide]",40 to 400,1 to 3,1 to 10
"CNC(=O)C(=O)CC[C@H](NC(=O)c1csc2ccccc12)C(=O)Nc1cccn(CC(=O)NC2C3CC4CC(C3)CC2C4)c1=O (stereo partly drawn) [II-137, (S)-2-(benzo[b]thiophene-3-carboxamido)-N1-(1-(2-(2-adamantylamino)-2-oxoethyl)-2-oxo-1,2-dihydropyridin-3-yl)-N6-methyl-5-oxohexanediamide]",40 to 400,3 to 5,1 to 10
"CNC(=O)C(=O)CC[C@H](NC(=O)c1ccn(C)n1)C(=O)Nc1cccn(CC(=O)NC2C3CC4CC(C3)CC2C4)c1=O (stereo partly drawn) [II-138, (S)-N1-(1-(2-(2-adamantylamino)-2-oxoethyl)-2-oxo-1,2-dihydropyridin-3-yl)-N6-methyl-2-(1-methyl-1H-pyrazole-3-carboxamido)-5-oxohexanediamide]",400 to 2500,< 1,< 1
"CNC(=O)C(=O)CC[C@H](NC(=O)c1cnn(C)c1)C(=O)Nc1cccn(CC(=O)NC2C3CC4CC(C3)CC2C4)c1=O (stereo partly drawn) [II-139, (S)-N1-(1-(2-(2-adamantylamino)-2-oxoethyl)-2-oxo-1,2-dihydropyridin-3-yl)-N6-methyl-2-(1-methyl-1H-pyrazole-4-carboxamido)-5-oxohexanediamide]",400 to 2500,< 1,< 1
"CNC(=O)C(=O)CC[C@H](NC(=O)c1ccnn1C)C(=O)Nc1cccn(CC(=O)NC2C3CC4CC(C3)CC2C4)c1=O (stereo partly drawn) [II-140, (S)-N1-(1-(2-(2-adamantylamino)-2-oxoethyl)-2-oxo-1,2-dihydropyridin-3-yl)-N6-methyl-2-(1-methyl-1H-pyrazole-5-carboxamido)-5-oxohexanediamide]",40 to 400,< 1,< 1
"CNC(=O)C(=O)CC[C@H](NC(=O)c1snnc1C)C(=O)Nc1cccn(CC(=O)NC2C3CC4CC(C3)CC2C4)c1=O (stereo partly drawn) [II-141, (S)-N1-(1-(2-(2-adamantylamino)-2-oxoethyl)-2-oxo-1,2-dihydropyridin-3-yl)-N6-methyl-2-(4-methyl-1,2,3-thiadiazole-5-carboxamido)-5-oxohexanediamide]",40 to 400,< 1,< 1
"CNC(=O)C(=O)CC[C@H](NC(=O)c1cnsn1)C(=O)Nc1cccn(CC(=O)NC2C3CC4CC(C3)CC2C4)c1=O (stereo partly drawn) [II-142, (S)-N1-(1-(2-(2-adamantylamino)-2-oxoethyl)-2-oxo-1,2-dihydropyridin-3-yl)-N6-methyl-5-oxo-2-(1,2,5-thiadiazole-3-carboxamido)hexanediamide]",40 to 400,1 to 3,< 1
"CNC(=O)C(=O)CC[C@H](NC(=O)c1c(I)cnn1C)C(=O)Nc1cccn(CC(=O)NC2C3CC4CC(C3)CC2C4)c1=O (stereo partly drawn) [II-143, (S)-2-(4-iodo-1-methyl-1H-pyrazole-5-carboxamido)-N1-(1-(2-(2-adamantylamino)-2-oxoethyl)-2-oxo-1,2-dihydropyridin-3-yl)-N6-methyl-5-oxohexanediamide]",400 to 2500,< 1,< 1
"Cn1nccc1C(=O)N[C@@H](CCC(=O)C(N)=O)C(=O)Nc1cccn(CC(=O)NC2C3CC4CC(C3)CC2C4)c1=O (stereo partly drawn) [II-144, (S)-N1-(1-(2-(2-adamantylamino)-2-oxoethyl)-2-oxo-1,2-dihydropyridin-3-yl)-2-(1-methyl-1H-pyrazole-5-carboxamido)-5-oxohexanediamide]",400 to 2500,< 1,< 1
"Cc1nnsc1C(=O)N[C@@H](CCC(=O)C(N)=O)C(=O)Nc1cccn(CC(=O)NC2C3CC4CC(C3)CC2C4)c1=O (stereo partly drawn) [II-145, (S)-N1-(1-(2-(2-adamantylamino)-2-oxoethyl)-2-oxo-1,2-dihydropyridin-3-yl)-2-(4-methyl-1,2,3-thiadiazole-5-carboxamido)-5-oxohexanediamide]",40 to 400,< 1,< 1
"NC(=O)C(=O)CC[C@H](NC(=O)c1cc2ccccc2o1)C(=O)Nc1cccn(CC(=O)N[C@@H]2C[C@H]3CC[C@@H]2C3)c1=O [II-146, (S)-2-(benzofuran-2-carboxamido)-N1-(1-(2-((1R,2R,4S)-bicyclo[2.2.1]heptan-2-ylamino)-2-oxoethyl)-2-oxo-1,2-dihydropyridin-3-yl)-5-oxohexanediamide]",< 40,< 1,1 to 10
"Cc1c(C(=O)N[C@@H](CCC(=O)C(N)=O)C(=O)Nc2cccn(CC(=O)N[C@@H]3C[C@H]4CC[C@@H]3C4)c2=O)oc2ccccc12 [II-147, (S)-N1-(1-(2-((1R,2R,4S)-bicyclo[2.2.1]heptan-2-ylamino)-2-oxoethyl)-2-oxo-1,2-dihydropyridin-3-yl)-2-(3-methylbenzofuran-2-carboxamido)-5-oxohexanediamide]",< 40,< 1,1 to 10
"NC(=O)C(=O)CC[C@H](NC(=O)c1cc2ccccc2o1)C(=O)Nc1cccn(CC(=O)N[C@@H]2C[C@@H]3CC[C@H]2C3)c1=O [II-148, (S)-2-(benzofuran-2-carboxamido)-N1-(1-(2-((1S,2R,4R)-bicyclo[2.2.1]heptan-2-ylamino)-2-oxoethyl)-2-oxo-1,2-dihydropyridin-3-yl)-5-oxohexanediamide]",< 40,< 1,1 to 10
"Cc1c(C(=O)N[C@@H](CCC(=O)C(N)=O)C(=O)Nc2cccn(CC(=O)N[C@@H]3C[C@@H]4CC[C@H]3C4)c2=O)oc2ccccc12 [II-149, (S)-N1-(1-(2-((1S,2R,4R)-bicyclo[2.2.1]heptan-2-ylamino)-2-oxoethyl)-2-oxo-1,2-dihydropyridin-3-yl)-2-(3-methylbenzofuran-2-carboxamido)-5-oxohexanediamide]",< 40,< 1,1 to 10
"CC1(C)[C@@H]2CC[C@@]1(C)[C@@H](NC(=O)Cn1cccc(NC(=O)[C@H](CCC(=O)C(N)=O)NC(=O)c3cc4ccccc4o3)c1=O)C2 [II-150, (S)-2-(benzofuran-2-carboxamido)-5-oxo-N1-(2-oxo-1-(2-oxo-2-((1R,2S,4R)-1,7,7-trimethylbicyclo[2.2.1]heptan-2-ylamino)ethyl)-1,2-dihydropyridin-3-yl)hexanediamide]",40 to 400,1 to 3,1 to 10
"Cc1c(C(=O)N[C@@H](CCC(=O)C(N)=O)C(=O)Nc2cccn(CC(=O)N[C@H]3C[C@H]4CC[C@]3(C)C4(C)C)c2=O)oc2ccccc12 [II-151, (S)-2-(3-methylbenzofuran-2-carboxamido)-5-oxo-N1-(2-oxo-1-(2-oxo-2-((1R,2S,4R)-1,7,7-trimethylbicyclo[2.2.1]heptan-2-ylamino)ethyl)-1,2-dihydropyridin-3-yl)hexanediamide]",40 to 400,1 to 3,1 to 10

# From US20240383856A1 (Zedira GmbH, priority 2021, published 2024)
